Measured values as given in patent publication US20220370636A1, “NICOTINAMIDE ADENINE DINUCLEOTIDE ACTIVATOR AND USE THEREOF” (University of South Florida, priority 2021, published 2022).

Columns and labels:
db/db mice = assay: Fasting blood glucose and GTT in db/db mice (Example 5); assay type: in vivo
Description: Fasting blood glucose. Mice were fasted overnight, and the tail vein blood was used for measuring the blood glucose levels of the diabetic mice treated with either Vehicle (db/db Veh) or P7C3 (db/db P7C3) for 4 weeks.
Glucose tolerance test. […] Blood samples were obtained by the submandibular puncture technique.

C57Bl/6J wildtype mice = assay: In vivo myocardial infarction (permanent LAD ligation); details: single bolus 10 mg/kg i.p. 30 minutes prior to LAD occlusion; 24 hours; vs vehicle
Method: […]. All surgical procedures were carried out in aseptic conditions. A left thoracotomy incision was performed at the fourth intercostal space to expose the heart and ligating the LAD coronary artery with an 8-0 polypropylene suture to induce MI as described previously. Myocardial ischemia was confirmed with both the development of pallor myocardium distal to the ligation in the left ventricle and with the ST-segment elevation on the ECG. The skin and muscle incisions were closed with a 6-0 polypropylene suture, and the mice was administered a single dose long-acting analgesic Buprenorphine SR s.c. at 0.5-1.5 mg/kg body weight. The mice were monitored for any signs of pain or discomfort and its feeding and drinking behavior. After 24 hours of occlusion of the LAD coronary artery, the mice were euthanized as per the approved IACUC protocol, and the heart was excised for further processing with 2,3,5-Triphenyltetrazolium chloride (TTC) (Sigma-Aldrich, MO, USA). The whole heart was cut into six parallel short-axis sections and stained with 1% TTC for 90 minutes and fixed overnight in 10% neutral-buffered formalin (Sigma-Aldrich, MO, USA). The TTC stained heart sections were then scanned to determine the total infarct size as the ratio of the infarcted area, i.e., not stained with TTC to the ventricular area of the 4 sections from the apex to the site of occlusion (n=3 mice/group).

OC(CNc1ccccc1)Cn1c2ccc(Br)cc2c2cc(Br)ccc21 (stereo not shown) [P7C3, 3,6-Dibromo-a-[(phenylamino)methyl]-9H-carbazole-9-ethanol]
GTT decrease in circulating blood glucose from 30 minutes onwards (db/db mice; db/db, 4 weeks, between treatment groups): non-significant
GTT area under curve (db/db mice; db/db, trapezium method, p=0.0021): significant difference
fasting blood glucose levels (db/db mice; overnight fasted db/db, 10 mg/kg/day i.p., 4 weeks, vs vehicle): significant decrease
total infarct size (C57Bl/6J wildtype mice): significant reduction
